Results: patent US6441180B1, “Tetrazolyl-phenyl actamide glucokinase activators” (Hoffmann-La Roche Inc., priority 2000, dated 2002)

SMILES | melting point [°C]
CNC(=O)NC(=O)/C(=C/C1CCCC1)c1ccc(-n2nnnc2C)c(F)c1 [Example 22, (E)-1-{3-Cyclopentyl-2-[3-fluoro-4-(5-methyl-tetrazol-1-yl)-phenyl]-acryloyl}-3-methyl-urea] | 186 to 192
Cc1nnnn1-c1ccc(/C(=C\C2CCCC2)C(=O)Nc2nccs2)cc1F [Example 12, (E)-3-Cyclopentyl-2-[3-fluoro-4-(5-methyl-tetrazol-1-yl)-phenyl]-N-thiazol-2-yl-acrlamide] | 158 to 162
Cc1nnnn1-c1cc(C(CC2CCCC2)C(=O)Nc2nccs2)ccc1S(C)(=O)=O (stereo not drawn) [Example 9, 3-Cyclopentyl-2-[4-methanesulfonyl-3-(5-methyl-tetrazol-1-yl)-phenyl]-N-thiazol-2-yl-propionamide] | 148 to 154

More lines, now with the values ahead:

melting point [°C] | SMILES
185 to 186 | CNC(=O)NC(=O)C(CC1CCCC1)c1ccc(-n2nnnc2C)c(Cl)c1 (stereo not drawn) [Example 11, 1-{2-[3-Chloro-4-(5-methyl-tetrazol-1-yl)-phenyl]-3-cyclopentyl-propionyl}-3-methyl-urea]
73 to 78 | Cc1nnnn1-c1ccc(C(CC2CCCC2)C(=O)Nc2ccc(Br)cn2)cc1F (stereo not drawn) [Example 2, N-(5-Bromo-pyridin-2-yl)-3-cyclopentyl-2-[3-fluoro-4-(5-methyl-tetrazol-1-yl)-phenyl]-propionamide]
190 to 193 | Cc1nnnn1-c1ccc(C(CC2CCCC2)C(=O)Nc2nccs2)cc1Cl (stereo not drawn) [Example 3, 2-[3-Chloro-4-(5-methyl-tetrazol-1-yl)-phenyl]-3-cyclopentyl-N-thiazol-2-yl-propionamide]
